From article PMC9120478 (Nature Communications, 2022)
Numbering of substitutions follows the chain as printed. Where “and” joins values, the source holds several entries; their conditions need not be identical. Identical values can stand only once.

How the values were obtained:
TRPV3-Y564A = target: T1, TRPV3-Y564A (Mus musculus, UniProt Q8K424, Y564A); assay: Fura-2 ratiometric Ca2+ uptake, inhibition of 2-APB-evoked response; format: cell-based
T1 construct: expressed in transfected cells; host or cells: HEK 293 S GnTI- cells (baculovirus transduction)
T1 sequence (Q8K424 1-791 Y564A): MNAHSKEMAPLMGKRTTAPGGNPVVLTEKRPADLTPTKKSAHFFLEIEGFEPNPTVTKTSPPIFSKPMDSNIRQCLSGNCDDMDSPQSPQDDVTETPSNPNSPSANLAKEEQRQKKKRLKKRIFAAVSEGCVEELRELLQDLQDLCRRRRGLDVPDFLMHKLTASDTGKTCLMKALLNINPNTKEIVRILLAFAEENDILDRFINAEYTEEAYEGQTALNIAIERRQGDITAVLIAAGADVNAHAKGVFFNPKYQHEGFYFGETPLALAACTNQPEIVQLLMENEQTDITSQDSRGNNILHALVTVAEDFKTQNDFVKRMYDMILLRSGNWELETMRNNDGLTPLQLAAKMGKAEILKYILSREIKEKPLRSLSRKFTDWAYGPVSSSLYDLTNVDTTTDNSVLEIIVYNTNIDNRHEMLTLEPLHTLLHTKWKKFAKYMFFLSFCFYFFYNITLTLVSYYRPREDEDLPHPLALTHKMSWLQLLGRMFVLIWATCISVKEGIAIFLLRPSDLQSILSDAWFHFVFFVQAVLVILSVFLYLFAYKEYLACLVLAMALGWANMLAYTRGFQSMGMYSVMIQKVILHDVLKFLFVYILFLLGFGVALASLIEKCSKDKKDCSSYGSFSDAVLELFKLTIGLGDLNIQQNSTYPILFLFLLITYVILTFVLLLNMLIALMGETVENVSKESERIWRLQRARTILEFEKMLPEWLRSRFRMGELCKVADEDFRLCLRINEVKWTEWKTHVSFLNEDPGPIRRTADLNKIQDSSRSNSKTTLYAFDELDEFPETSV
Experimental: The Y564A mutation increases affinity to the TRPV3 agonist 2-APB[42] and decreases affinity to the competitive antagonist osthole.
GFP-free C-terminally strep-tagged wild-type TRPV3, TRPV3-Y564A, TRPV3-Y594A, TRPV3-F633A, TRPV3-I663W, and TRPV3-F666A were expressed in HEK 293 S GnTI^− cells as previously described[41],[42],[53]. In short, 48 h after transduction, 1-ml aliquots of cell suspension were collected by centrifugation at 550 g for 5 min using an Eppendorf 5424 centrifuge. The cells were resuspended in the pre-warmed modified HEPES-buffered saline (HBS) containing 118 mM NaCl, 4.8 mM KCl, 1 mM MgCl2, 5 mM D-glucose, and 10 mM HEPES pH 7.4 and 5 μg/ml Fura-2 AM (Thermo Fisher Scientific) and incubated for 45 min at 37 °C. The Fura-2-loaded cells were then centrifuged for 5 min at 550 g, resuspended in the pre-warmed, modified HBS and incubated again for 30 min at 37 °C in the dark. […] The washed cell pellets were kept on ice in the dark before taking an aliquot for fluorescence measurements. […] Fluorescence measurements were conducted using a QuantaMaster 40 spectrofluorometer (Photon Technology International) at room temperature in a quartz cuvette under constant stirring. […] Changes in intracellular Ca^2+ were measured by taking the ratio of fluorescence emitted at 510 nm at the excitation wavelength of 340 nm and 380 nm. […]

TRPV3 = target: T2, TRPV3 (Mus musculus, UniProt Q8K424); assay: 2-APB concentration dependence of TRPV3 activation at two dyclonine concentrations (Schild plot); format: cell-based; conditions: for TRPV3 activation by 2-APB in the presence of dyclonine (Schild plot source data): listed as Dyc
T2 construct: expressed in transfected cells; host or cells: HEK 293 S GnTI- cells (baculovirus transduction)
T2 sequence (Q8K424 1-791): T1 sequence (Q8K424 1-791 Y564A) with A564Y
Experimental: GFP-free C-terminally strep-tagged wild-type TRPV3, TRPV3-Y564A, TRPV3-Y594A, TRPV3-F633A, TRPV3-I663W, and TRPV3-F666A were expressed in HEK 293 S GnTI^− cells as previously described[41],[42],[53]. In short, 48 h after transduction, 1-ml aliquots of cell suspension were collected by centrifugation at 550 g for 5 min using an Eppendorf 5424 centrifuge. The cells were resuspended in the pre-warmed modified HEPES-buffered saline (HBS) containing 118 mM NaCl, 4.8 mM KCl, 1 mM MgCl2, 5 mM D-glucose, and 10 mM HEPES pH 7.4 and 5 μg/ml Fura-2 AM (Thermo Fisher Scientific) and incubated for 45 min at 37 °C. The Fura-2-loaded cells were then centrifuged for 5 min at 550 g, resuspended in the pre-warmed, modified HBS and incubated again for 30 min at 37 °C in the dark. The cells were subsequently pelleted and washed twice in the modified HBS. The washed cell pellets were kept on ice in the dark before taking an aliquot for fluorescence measurements. […] We used the lower CaCl2 concentration than before[42],[28] (2.5 mM) to minimize non-specific effects, which often appeared as a drift in the Fura-2 signal at high Ca^2+ concentration, presumably due to cell death as a result of calcium overload. Fluorescence measurements were conducted using a QuantaMaster 40 spectrofluorometer (Photon Technology International) at room temperature in a quartz cuvette under constant stirring. After 60 s since the beginning, the recording was paused and 2-APB was added. After the addition of 2-APB, the recording was continued for the additional 140 s. Changes in intracellular Ca^2+ were measured by taking the ratio of fluorescence emitted at 510 nm at the excitation wavelength of 340 nm and 380 nm. […] The data were processed using Origin 9.0 (OriginLab) software.

For `CCCCOc1ccc(C(=O)CCN2CCCCC2)cc1` [dyclonine, 1-(4-butoxyphenyl)-3-piperidin-1-ylpropan-1-one], the IC50 (TRPV3-Y564A; 200 µM 2-APB, n = 4, negative control mutant) was 31.5 ± 1 µM, the “nHill of inhibition curve, Y564A” value (TRPV3-Y564A; logistic fit, n = 4) was 2.33 ± 0.11 and the “TRPV3 activation by 2-APB in the presence of dyclonine (Schild plot source data)” value (shortened to “TRPV3 activation by 2-APB”) (TRPV3; 60 mM Dyc, 2-APB Conc 20, single experiments) was 0.167 and 0.154 and 0.168. The “TRPV3 activation by 2-APB” value (TRPV3; 60 mM Dyc, 2-APB Conc 40, single experiments) was 0.144 and 0.213 and 0.179, the “TRPV3 activation by 2-APB” value (TRPV3; 60 mM Dyc, 2-APB Conc 80, single experiments) was 0.244 and 0.241 and 0.22 and the “TRPV3 activation by 2-APB” value (TRPV3; 60 mM Dyc, 2-APB Conc 160, single experiments) was 0.294 and 0.283. For the same molecule, the “TRPV3 activation by 2-APB” value (TRPV3; 2-APB Conc 10, single experiments) was 0.194 and 0.175 and 0.157, the “TRPV3 activation by 2-APB” value (TRPV3; 2-APB Conc 20, single experiments) was 0.323 and 0.34 and 0.318 and the “TRPV3 activation by 2-APB” value (TRPV3; 2-APB Conc 40, single experiments) was 0.542 and 0.419 and 0.487. The “TRPV3 activation by 2-APB” value (TRPV3; 2-APB Conc 80, single experiments) was 0.804 and 0.786 and 0.853 and the “competition between 2-APB and dyclonine (Schild plots)” value (TRPV3; 10 and 60 μM dyclonine) was “lack of obvious competition”.
